Data on 3 molecules can be found in ChEMBL document CHEMBL1150662, “A new digalactosyl diacylglycerol from a cultured marine dinoflagellate Heterocapsa circularisquama” (J Nat Prod, 2002).

A short description of this data set: Cytotoxicity against oysters heart cells at 0.5 ug/ml. Conditions: ostreidae. Format: cell-based.
Consider `CC/C=C\C/C=C\C/C=C\C/C=C\C/C=C\CC(=O)OC[C@H](CO[C@@H]1O[C@H](CO)[C@H](O)[C@H](O)[C@H]1O)OC(=O)C/C=C\C/C=C\C/C=C\C/C=C\C/C=C\CC`, for which the Activity result is “Toxic”.

In the case of `CC/C=C\C/C=C\C/C=C\C/C=C\C/C=C\CC(=O)OC[C@H](CO[C@@H]1O[C@H](CO[C@H]2O[C@H](CO)[C@H](O)[C@H](O)[C@H]2O)[C@H](O)[C@H](O)[C@H]1O)OC(=O)CCCC/C=C\C/C=C\C/C=C\C/C=C\CC`, the Activity entry is listed as “Toxic”.

With `CC/C=C\C/C=C\C/C=C\C/C=C\C/C=C\CC(=O)OC[C@H](CO[C@@H]1O[C@H](CO)[C@H](O)[C@H](O)C1O)OC(=O)CCCC/C=C\C/C=C\C/C=C\C/C=C\CC` (single isomer, unassigned), the Activity result was “Toxic”.
